From US9090576B2, “2-substituted-p-quinone derivatives for treatment of oxidative stress diseases” (Edison Pharmaceuticals, Inc., priority 2008, dated 2015)

What was measured:
Format in all cases: cell-based
[1] = system: Human dermal fibroblasts from Friedreich's Ataxia patients; test: Rescue of BSO-stressed FRDA fibroblasts (Calcein AM viability); conditions: BSO-stressed FRDA fibroblasts (GM04078), less than about 150 nM, read-out: EC50, protection against FRDA
Method in brief: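 Patient FRDA fibroblasts (GM04078) seeded at 3,000 cells/well, given serially diluted compound from a 150 μM master solution, then stressed next day with 1 mM BSO.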

[2] = system: human dermal fibroblasts from Parkinson's Disease patients; test: Rescue of BSO-stressed fibroblasts from Parkinson's Disease patients (screen as Example A); conditions: Fibroblast, BSO-stressed Parkinson's Disease fibroblasts (AG20439), less than about 150 nM, read-out: EC50, protection against PD
Protocol: A culture with FRDA fibroblasts was started from a 1 ml vial with approximately 500,000 cells stored in liquid nitrogen. Cells were propagated in 10 cm cell culture dishes by splitting every third day in a ratio of 1:3 until nine plates were available. Once confluent, fibroblasts were harvested. For 54 micro titer plates (96 well-MTP) a total of 14.3 million cells (passage eight) were re-suspended in 480 ml medium, corresponding to 100 μl medium with 3,000 cells/well. The remaining cells were distributed in 10 cm cell culture plates (500,000 cells/plate) for propagation. The plates were incubated overnight at 37° C. in an atmosphere with 95% humidity and 5% CO2 to allow attachment of the cells to the culture plate.
MTP medium (243 μl) was added to a well of the microtiter plate. The test compounds were unfrozen, and 7.5 μl of a 5 mM stock solution was dissolved in the well containing 243 μl medium, resulting in a 150 μM master solution. Serial dilutions from the master solution were made. The period between the single dilution steps was kept as short as possible (generally less than 1 second).
Plates were kept overnight in the cell culture incubator. The next day, 10 μl of a 10 mM BSO solution were added to the wells, resulting in a 1 mM final BSO concentration. Forty-eight hours later, three plates were examined under a phase-contrast microscope to verify that the cells in the 0% control (wells E1-H1) were clearly dead. The medium from all plates was discarded, and the remaining liquid was removed by gently tapping the plate inversed onto a paper towel.
100 μl of PBS containing 1.2 μM Calcein AM were then added to each well. The plates were incubated for 50-70 minutes at room temperature. After that time the PBS was discarded, the plate gently tapped on a paper towel and fluorescence (excitation/emission wavelengths of 485 nm and 525 nm, respectively) was read on a Gemini fluorescence reader. Data was imported into Microsoft Excel (EXCEL is a registered trademark of Microsoft Corporation for a spreadsheet program) and used to calculate the EC50 concentration for each compound.
Compounds of the invention were screened as described in Example A, but substituting FRDA cells with Parkinson's Disease (PD) cells obtained from the Coriell Cell Repositories (Camden, N.J.; repository number AG20439). The compounds were tested for their ability to rescue human dermal fibroblasts from Parkinson's Disease patients from oxidative stress.

[3] = system: human dermal fibroblasts from Huntington's patients; test: Rescue of BSO-stressed fibroblasts from Huntington's patients (screen as Example A); conditions: Fibroblast, BSO-stressed Huntington's fibroblasts (GM 04281), less than about 150 nM, read-out: EC50, protection against Huntington's
Method in brief: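 Coriell Huntington's line GM 04281 plated at 3,000 cells/well and attached overnight at 37 °C. Survival was read by Calcein AM (1.2 μM, 50-70 min, RT) fluorescence at 485/525 nm, giving EC50.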

[4] = system: human dermal fibroblasts from LHON patients; test: Rescue of BSO-stressed fibroblasts from LHON patients (screen as Example A); conditions: Fibroblast, BSO-stressed LHON fibroblasts (GM03858), less than about 150 nM, read-out: EC50, protection against LHON
Method in brief: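 LHON patient fibroblasts (Coriell GM03858) at 3,000 cells/well were pre-treated overnight with compounds serially diluted from a 150 μM master solution. Surviving cells were stained with 1.2 μM Calcein AM for 50-70 min at RT and read by fluorescence (485/525 nm), giving EC50.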

Measured: EC50

CC1=C(C)C(=O)C(CCNC(=O)NCCN(C)C)=C(C)C1=O [1-(2-(dimethylamino)ethyl)-3-(2-(2,4,5-trimethyl-3,6-dioxocyclohexa-1,4-dienyl)ethyl)urea]
< 150 nM: all assays above

CC1=C(C)C(=O)C(CCNC(=O)NCCO)=C(C)C1=O [1-(2-hydroxyethyl)-3-(2-(2,4,5-trimethyl-3,6-dioxocyclohexa-1,4-dienyl)ethyl)urea]
< 150 nM: all assays above

CC1=C(C)C(=O)C(CCNC(=O)NCc2ccc(F)cc2)=C(C)C1=O [1-(4-Fluorobenzyl)-3-(2-(2,4,5-trimethyl-3,6-dioxocyclohexa-1,4-dienyl)ethyl)urea]
< 150 nM: all assays above

CC1=C(C)C(=O)C(CCNC(=O)NCc2ccc(Cl)cc2)=C(C)C1=O [1-(4-chlorobenzyl)-3-(2-(2,4,5-trimethyl-3,6-dioxocyclohexa-1,4-dienyl)ethyl)urea]
< 150 nM: all assays above

CC1=C(C)C(=O)C(CCNC(=O)NCc2cccnc2)=C(C)C1=O [1-(pyridin-3-ylmethyl)-3-(2-(2,4,5-trimethyl-3,6-dioxocyclohexa-1,4-dienyl)ethyl)urea]
< 150 nM: all assays above

CC1=C(C)C(=O)C(CCNC(=O)NCc2ccncc2)=C(C)C1=O [1-(pyridin-4-ylmethyl)-3-(2-(2,4,5-trimethyl-3,6-dioxocyclohexa-1,4-dienyl)ethyl)urea]
< 150 nM: all assays above

CC1=C(C)C(=O)C(CCNC(=O)Cc2ccc(Cl)cc2)=C(C)C1=O [2-(4-chlorophenyl)-N-(2-(2,4,5-trimethyl-3,6-dioxocyclohexa-1,4-dienyl)ethyl)acetamide]
< 150 nM: all assays above

CC1=C(C)C(=O)C(CCNC(=O)Cc2ccc(F)cc2)=C(C)C1=O [2-(4-fluorophenyl)-N-(2-(2,4,5-trimethyl-3,6-dioxocyclohexa-1,4-dienyl)ethyl)acetamide]
< 150 nM: all assays above

CC1=C(C)C(=O)C(CCC(C)C(=O)Nc2ccccn2)=C(C)C1=O (centres unmarked) [2-methyl-N-(pyridin-2-yl)-4-(2,4,5-trimethyl-3,6-dioxocyclohexa-1,4-dienyl)butanamide]
< 150 nM: all assays above

CC1=C(C)C(=O)C(CCNC(=O)N2CCN(Cc3ccccc3)CC2)=C(C)C1=O [4-benzyl-N-(2-(2,4,5-trimethyl-3,6-dioxocyclohexa-1,4-dienyl)ethyl)piperazine-1-carboxamide]
< 150 nM: all assays above

CC1=C(C)C(=O)C(CCNS(=O)(=O)c2ccc(F)cc2)=C(C)C1=O [4-fluoro-N-(2-(2,4,5-trimethyl-3,6-dioxocyclohexa-1,4-dienyl)ethyl)benzenesulfonamide]
< 150 nM: all assays above
